Results: patent publication US9150534B2, “Prodrugs of fluorinated mevalonates to inhibit the mevalonate pathway of Streptococcus pneumoniae” (Northwestern University, priority 2012, dated 2015)
Like-named read-outs stand apart in the source and are kept apart here.

Legend:
[1] = Evaluation of stability in human plasma, HPLC or LC-TOF; type: in vitro ADME
Method: The stabilities of diverse cyclic carbonate prodrugs (4, 9, 10, 11, 17, 18, 19, 25, 29, 30, 39, 40, and 41), which have a chromosphere for UV detection, in human plasma were tested using HPLC. After the mixture of test compounds and human plasma were incubated at 37° C., the degradation of the compounds was monitored by HPLC (Table 2). […] The peaks of the corresponding diols (3, 24, or 34), which were the compounds that result when only the carbonate moiety of the analogues was hydrolyzed, were not observed. The half-lives of the benzyl or phenyl ester moieties may be shorter than carbonate, under tested conditions for such compounds to be used effectively as prodrugs.
Human plasma (100%, 480 μL) was incubated at 37° C. for 5 min. The stock solution of the test compound (100 mM in acetonitrile, 20 μL) was added to the human plasma, and the mixture was incubated at 37° C. Aliquots (80 μL) of the plasma samples were removed and mixed with an equal volume of acetonitrile. The mixture was stirred vigorously and centrifuged (5500 rpm, 5 min). The supernatant was filtered and the filtrate was analyzed by HPLC or LC-TOF (See below). These tests were conducted two times in each compound.
(§1) Analysis was performed on a Phenomenex® Luna C18 column (250×4.6 mm) eluted with a gradient conditions of acetonitrile and H2O. Detection was by UV absorbance at 257 nm or total count of single ion in Agilent 6210 LC-TOF mass spectra.

[2] = Evaluation of stability in PBS buffer (pH=7.4), HPLC; type: physicochemical; details: for half-life at 1 mM: PBS buffer pH=7.4, 37° C., read-out: half-life time (T1/2) in PBS buffer (converted)
Method: The stabilities of several cyclic carbonate analogues in PBS buffer (pH=7.4) were tested first to determine the standard level of the drug decomposition by media (Table 1). PBS (phosphate buffered saline) buffer is a standard solution used in plasma stability tests. […] After the compounds were incubated in PBS buffer at 37° C., the degradation of the compounds with incubation time was monitored. As the number of fluorines at the C6 position was increased, the half-life time (T1/2) of the molecule was decreased dramatically (4 vs 25 vs 35). T1/2 of the C6-methyl analogue (4) was more than 48 hours and T1/2 of C6-monofluoromethyl analogues (25, 29, and 30) were about 25 hours while T1/2 of C6-trifluoromethyl analogues (35, 39, and 40) were about 5 hours. If the substitution of C-6 position (CH3, CH2F, or CF3) was same, T1/2 of diverse benzyl esters (benzyl, 4-fluorobenzyl, or 2,4-difluorobenzyl) were not dramatically changed. […] These half-lives of benzyl esters and cyclic carbonates in PBS buffer were sufficient to use these promoieties for the penetration of the cell membrane.
The stock solution of the test compound (10 mM in acetonitrile, 50 μL) was added to PBS buffer (pH=7.4, 450 μL), and the mixture was incubated at 37° C. Aliquots of the samples were analyzed directly by HPLC (See below). These tests were conducted two times in each compound.
as §1

[3] = read-out: half-life of the ester moieties on the carboxylic acids
[4] = human, human plasma (100%), 37° C., read-out: half-life (T1/2) in human plasma
[5] = human, human plasma (100%), 37° C., read-out: T1/2 (stabilities of the benzyl amide analogues with acetal, ketal, t-butyl carbonate promoieties in human plasma)
[6] = human, human plasma (100%), 37° C., read-out: T1/2 (half-lives of diverse carbonate in human plasma)

## CC(=O)OCCC(O)(CF)CC(=O)NCc1ccccc1 (stereo not drawn) [compound 65]
[1]; human, human plasma (100%), 37° C., read-out: T1/2 (stabilities of amide and ester analogues in human plasma)
  half-life at 4 mM: 20 min
[1]; human, human plasma (100%), read-out: half-life of the acetyl groups on the alcohol
  half-life at 4 mM: ~20 min

## COC(=O)CC(O)(CF)CCOC(C)=O (stereo not drawn) [compound 63]
[1]; 37° C.
  T1/2 (stabilities of amide and ester analogues in human plasma): 10 min
[1]; [3]
  half-life at 4 mM: 10 to 22 min

## CC1(CC(=O)NCc2ccc(F)cc2)CCOC(=O)O1 (stereo not drawn) [compound 19]
[1]; [4]
  half-life at 4 mM: 8 min

## CC1(CC(=O)OCc2ccccc2)CCOC(=O)O1 (stereo not drawn) [compound 4]
[2]
  half-life at 1 mM: > 2880 min
[1]; [4]
  half-life at 4 mM: 4 min

## COC(=O)CC1(CF)CCOC(=O)O1 (stereo not drawn)
other
  melting point: 42 to 42.5 °C

## CC1(CC(=O)Oc2ccccc2)CCOC(=O)O1 (stereo not drawn) [compound 9]
other
  melting point: 62 to 62.5 °C
[1]; [4]
  half-life at 4 mM: < 3 min

## CC1(CC(=O)NCc2ccccc2)CCOC(c2ccccc2)O1 (stereo not drawn) [compound 49]
[1]; 37° C.
  T1/2 (stabilities of the benzyl amide analogues with acetal, ketal, t-butyl carbonate promoieties in human plasma): >48 h

## CC1(CC(=O)NCc2ccccc2)CCOC(=O)O1 (stereo not drawn) [compound 18]
[1]; [4]
  half-life at 4 mM: 8 min

## CC(O)(CCO)CC(=O)NCc1c(F)c(F)c(F)c(F)c1F (stereo not drawn) [compound 56]
[1]; 37° C.
  T1/2 (stabilities of amide and ester analogues in human plasma): > 120 min

## COc1ccc(C2OCCC(CC(=O)NCc3ccccc3)(C(F)(F)F)O2)cc1 (stereo not drawn) [compound 52]
[1]; [5]
  half-life at 4 mM: > 2880 min

## CC1(CC(=O)NCc2ccccc2)CCOC(C)(C)O1 (stereo not drawn) [compound 47]
[1]; 37° C.
  T1/2 (stabilities of the benzyl amide analogues with acetal, ketal, t-butyl carbonate promoieties in human plasma): >48 h

## O=C(CC1(CF)CCOC(=O)O1)OCc1ccccc1 (stereo not drawn) [compound 25]
[2]
  half-life at 1 mM: ~1500 min
[1]; 37° C.
  T1/2 (half-lives of diverse carbonate in human plasma): 2 min
[1]; [4]
  half-life at 4 mM: < 3 min

## O=C(CC1(C(F)(F)F)CCOC(=O)O1)OCCc1ccccc1 (stereo not drawn) [compound 41]
[1]; [6]
  half-life at 4 mM: 4 min
[1]; [4]
  half-life at 4 mM: < 3 min

## CC(C)(C)OC(=O)OCCC(O)(CC(=O)NCc1ccccc1)C(F)(F)F (stereo not drawn) [compound 55]
[1]; 37° C.
  T1/2 (stabilities of the benzyl amide analogues with acetal, ketal, t-butyl carbonate promoieties in human plasma): >48 h

## CC1(C)OCCC(CC(=O)NCc2ccccc2)(C(F)(F)F)O1 (stereo not drawn) [compound 48]
[1]; [5]
  half-life at 4 mM: > 2880 min

## O=C(CC1(C(F)(F)F)CCOC(c2ccccc2)O1)NCc1ccccc1 (stereo not drawn) [compound 50]
[1]; 37° C.
  T1/2 (stabilities of the benzyl amide analogues with acetal, ketal, t-butyl carbonate promoieties in human plasma): >48 h

## O=C(CC1(C(F)(F)F)CCOC(=O)O1)OCc1ccc(F)cc1 (stereo not drawn) [compound 39]
[2]
  half-life at 1 mM: ~300 min
other
  melting point: 84 to 85 °C
[1]; 37° C.
  T1/2 (half-lives of diverse carbonate in human plasma): <1 min
[1]; [4]
  half-life at 4 mM: < 3 min

## CCOC(=O)CC(O)(CF)CCOC(C)=O (stereo not drawn) [compound 64]
[1]; 37° C.
  T1/2 (stabilities of amide and ester analogues in human plasma): 11 min
[1]; [3]
  half-life at 4 mM: 10 to 22 min

## O=C(CC1(C(F)(F)F)CCOCO1)NCc1ccccc1 (stereo not drawn) [compound 46]
[1]; 37° C.
  T1/2 (stabilities of the benzyl amide analogues with acetal, ketal, t-butyl carbonate promoieties in human plasma): >48 h

## CC1(CC(=O)NCc2ccccc2)CCOCO1 (stereo not drawn) [compound 45]
[1]; 37° C.
  T1/2 (stabilities of the benzyl amide analogues with acetal, ketal, t-butyl carbonate promoieties in human plasma): >48 h

## COc1ccc(C2OCCC(CC(=O)NCc3ccccc3)(C(F)(F)F)O2)cc1 (stereo not drawn) [compound 51]
[1]; 37° C.
  T1/2 (stabilities of the benzyl amide analogues with acetal, ketal, t-butyl carbonate promoieties in human plasma): >48 h

## O=C(CC1(C(F)(F)F)CCOC(=O)O1)OCc1ccc(F)cc1F (stereo not drawn) [compound 40]
[2]
  half-life at 1 mM: ~300 min
[1]; 37° C.
  T1/2 (half-lives of diverse carbonate in human plasma): <1 min
[1]; [4]
  half-life at 4 mM: < 3 min

## O=C(CC1(CF)CCOC(=O)O1)OCc1ccc(F)cc1F (stereo not drawn) [compound 30]
[2]
  half-life at 1 mM: ~1500 min
[1]; 37° C.
  T1/2 (half-lives of diverse carbonate in human plasma): 1 min
[1]; [4]
  half-life at 4 mM: < 3 min

## CC1(CC(=O)Oc2ccc3c(c2)CCC3)CCOC(=O)O1 (stereo not drawn) [compound 11]
other
  melting point: 88 to 89 °C
[1]; [6]
  half-life at 4 mM: < 3 min
[1]; [4]
  half-life at 4 mM: < 3 min

## CC1(CC(=O)Nc2ccccc2)CCOC(=O)O1 (stereo not drawn) [compound 17]
[1]; [4]
  half-life at 4 mM: < 3 min

## O=C(CC1(C(F)(F)F)CCOC(=O)O1)OCc1ccccc1 (stereo not drawn) [compound 35]
[2]
  half-life at 1 mM: ~300 min
[2]; degradation of 35 in PBS buffer
  peak of 34 (carbonate moiety decomposition product) in HPLC: not observed
other
  melting point: 87.5 to 88 °C
[1]; 37° C.
  T1/2 (half-lives of diverse carbonate in human plasma): <1 min
[1]; [4]
  half-life at 4 mM: < 3 min

## O=C(CC1(CF)CCOC(=O)O1)OCc1ccc(F)cc1 (stereo not drawn) [compound 29]
[2]
  half-life at 1 mM: ~1500 min
[1]; 37° C.
  T1/2 (half-lives of diverse carbonate in human plasma): 2 min
[1]; [4]
  half-life at 4 mM: < 3 min

## CC(O)(CCOC(=O)OC(C)(C)C)CC(=O)NCc1ccccc1 (stereo not drawn) [compound 54]
[1]; 37° C.
  T1/2 (stabilities of the benzyl amide analogues with acetal, ketal, t-butyl carbonate promoieties in human plasma): >48 h

## CC1(CC(=O)Oc2ccc(F)cc2)CCOC(=O)O1 (stereo not drawn) [compound 10]
other
  melting point: 68 to 69 °C
[1]; [4]
  half-life at 4 mM: < 3 min

## COc1ccc(C2OCCC(CC(=O)NCc3ccccc3)(C(F)(F)F)O2)c(OC)c1 (stereo not drawn) [compound 53]
[1]; 37° C.
  T1/2 (stabilities of the benzyl amide analogues with acetal, ketal, t-butyl carbonate promoieties in human plasma): >48 h
